We go through 14 molecules from patent US20250236629A1, “MEDIUM- OR MACRO-CYCLIC BENZYL-SUBSTITUTED HETEROCYCLE DERIVATIVES AND RELATED USES” (CENTESSA PHARMACEUTICALS (UK) LIMITED, priority 2022, published 2025).

For data set [1] the following is noted: DCM.
Data set [2] concerns the target T1, human orexin type 2 receptor (hOX2R) (Homo sapiens, UniProt O43614).
T1 construct: the Orexin receptor cDNA was inserted into pcDNA3.1(+) plasmid vector; expressed in transfected cells
T1 sequence (O43614 1-444): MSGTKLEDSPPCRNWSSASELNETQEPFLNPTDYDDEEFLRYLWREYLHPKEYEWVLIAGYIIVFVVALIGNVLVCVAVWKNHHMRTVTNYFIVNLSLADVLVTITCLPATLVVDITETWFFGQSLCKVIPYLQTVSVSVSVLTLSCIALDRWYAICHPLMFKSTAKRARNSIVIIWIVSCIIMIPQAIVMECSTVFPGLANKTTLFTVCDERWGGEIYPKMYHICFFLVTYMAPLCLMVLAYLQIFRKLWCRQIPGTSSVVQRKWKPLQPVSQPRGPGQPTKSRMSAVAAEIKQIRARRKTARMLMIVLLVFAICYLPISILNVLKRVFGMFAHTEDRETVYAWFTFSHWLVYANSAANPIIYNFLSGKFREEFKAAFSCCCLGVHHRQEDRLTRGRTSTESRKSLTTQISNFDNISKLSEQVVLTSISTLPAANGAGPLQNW
Put plainly: Orexin type 2 receptor agonist activity, intracellular Ca2+ (FLIPR TETRA) in CHO cells. It is filed as cell-based. The note with it: CHO cells expressing hOX2R; Ca2+ fluorescence area; 100% = 10 nM human orexin A; read-out: hOx2 pEC50 (converted). The procedure:
Stable cell line generation. Obtainment of cells stably expressing either human orexin type 2 or human orexin type 1 receptor: to obtain a stable cell line the Orexin receptor cDNA was inserted into pcDNA3.1(+) plasmid vector and clones identified by G418 drug resistance selection. […] A single clone for OX2R—CHO and OX1R—CHO were grown in bulk and frozen to generate a cell bank for routine screening.
Measurement of orexin type 2 receptor agonist activity. Chinese hamster ovary (CHO) cells expressing human orexin type 2 receptor (hOX2R) or human orexin type 1 receptor (hOX1R) were seeded in each well of 384 well black clear bottom plates (BD Flacon) at 10,000 cells per well and cultured for 24 hr in an Ham's F12 (Gibco) medium containing 10% fetal calf serum (Sigma Aldrich) under the conditions of 37° C., 5% CO2. After removal of the medium, 50 μl of assay buffer 1 (0.1% bovine serum albumin (Sigma Aldrich), 20 mM HEPES (Molecular Dimensions), […] probenecid (Sigma Aldrich), 1× Calcium 5 dye (Molecular Devices) in Hank's balanced salt solution (Invitrogen)) was added, and the cells were incubated for 60 min under the conditions of 37° C., 5% CO2. A test compound was dissolved in dimethyl sulfoxide (Sigma Aldrich) to 10 mM, and then diluted with assay buffer 2 (20 mM HEPES, Hank's balanced salt solution, 0.1% bovine serum albumin). For the reaction, a test compound solution (10 μl) was added using Fluorescent Imaging Plate Reader TETRA (FLIPR TETRA: manufactured by Molecular Devices), a fluorescence value (excitation wavelength 488 nm, measurement wavelength 570 nm) of each well was measured every one second for 2 min, and the agonist activity was determined using the area of the fluorescence value as an indicator of intracellular Ca^2+ concentration. The agonist activity of the test compound was calculated assuming that the fluorescence value of the well added with only the dilution buffer was 0% and the fluorescence value of the well added with 10 nM human orexin A (Tocris) buffer was 100%.
Values of hOx2 pEC50 in Table B are presented in ranges, in which 6.0≤“+”<7.0, 7.0≤“++”<8.0, 8.0≤“+++”<9.0, and 9.0≤“++++”<10.4.

Data set [3] concerns B6.Cg-Tg(HCRT-MJD)1Stak/J (Atax) mouse model of NT1. The data set can be described thus: Wake-promoting efficacy of oral small molecules, piezoelectric sleep/wake monitoring, Atax mice. It is filed as in vivo. The settings on record: dosed 5 h after light onset. On the procedure:
(§1) Wake-promoting efficacy of oral small molecules. Wake-promoting efficacy was evaluated in the […]) mouse model of NT1 and wild type (WT) colony mates. Mice were monitored in home cages using piezoelectric sensors for rapid, non-invasive classification of sleep and wakefulness by unsupervised machine learning on physiologically relevant readouts, such as body movement and breath rate. Piezoelectric detection is highly correlated with conventional time-intensive electroencephalogram/electromyography measures of sleep/wake states in both WT and NT1 mice. In a counterbalanced, repeated-measures design, mice were orally dosed at 5 h after light onset with test articles and vehicle.

In data set [4] the test system is wild type (WT) colony mates. The data set can be described thus: Wake-promoting efficacy of oral small molecules, piezoelectric sleep/wake monitoring, WT mice. The format is in vivo, mouse. The settings on record: dosed 5 h after light onset. The procedure:
as §1

For data set [5] the following is noted: DCM. The source holds these as a separate data set.

Like-named read-outs stand apart in the source and are kept apart here.

For the molecule `O=C1CCOc2c(F)cc(F)cc2-c2cccc(c2F)C[C@H]2[C@@H](NS(=O)(=O)C3(F)CC3)[C@@H](F)CCN12` [Example 43, 1-fluoro-N-((4^2S,4^3R,4^4S)-1^3,1^5,2^2,4^4-tetrafluoro-5-oxo-8-oxa-4 (2,1)-piperidina-1 (1,2),2 (1,3)-dibenzenacyclooctaphane-4^3-yl)cyclopropane-1-sulfonamide], in data set [1] (from O=C(O)CCOc1c(F)cc(F)cc1-c1cccc(C[C@@H]2NCC[C@H](F)[C@@H]2NS(=O)(=O)C2(F)CC2)c1F, amide bond, 12-membered ring, DMC (2-chloro-1,3-dimethylimidazolinium chloride)/DIEA, 0.148 mM, 20.0 °C, 4.0 h), the ring closure, yield after HPLC is 77%. Moreover, the EC50 in data set [2] is 0.0398 to 1 nM.

As to `O=C1CCOc2c(F)cc(F)cc2-c2cccc(c2F)C[C@H]2[C@@H](NS(=O)(=O)CF)[C@@H](F)CCN12` [Example 41, 1-fluoro-N-((4^2S,4^3R,4^4S)-1^3,1^5,2^2,4^4-tetrafluoro-5-oxo-8-oxa-4 (2,1)-piperidina-1 (1,2),2 (1,3)-dibenzenacyclooctaphane-4^3-yl)methanesulfonamide], the EC50 in data set [2] is 0.0398 to 1 nM. In addition, the “Wake % time 1 h post dose (increase from vehicle)” value was found to be 32.4% in data set [3] (oral dose 1 mg/kg), 38.2% in data set [3] (oral dose 3 mg/kg), 28.0% in data set [4] (oral dose 10 mg/kg) and 31.5% in data set [4] (oral dose 30 mg/kg).

Take `O=C1CCOc2c(F)cccc2-c2cccc(c2F)C[C@H]2[C@@H](NS(=O)(=O)C3(F)CC3)CCCN12` [Example 48, N-((4^2S,4^3S)-13,22-difluoro-5-oxo-8-oxa-4 (2,1)-piperidina-1 (1,2),2 (1,3)-dibenzenacyclooctaphane-4^3-yl)-1-fluorocyclopropane-1-sulfonamide]: the EC50 in data set [2] is 0.0398 to 1 nM. The “Wake % time 1 h post dose (increase from vehicle)” value in data set [3] (oral dose 0.3 mg/kg) is given as 44.4%; in data set [3] (oral dose 1 mg/kg), 40.5%; in data set [3] (oral dose 3 mg/kg), 48.0%; in data set [4] (oral dose 3 mg/kg) it was 18.6%; in data set [4] (oral dose 10 mg/kg), 34.8%.

In data set [5] (from O=C(O)CCOc1c(F)cc(F)cc1-c1cccc(C[C@@H]2NCCC[C@@H]2NS(=O)(=O)C2(F)CC2)c1F, amide bond, 12-membered ring, DMC (2-chloro-1,3-dimethylimidazolinium chloride)/DIEA, 1.56 mM, 25.0 °C, 1.0 h), `O=C1CCOc2c(F)cc(F)cc2-c2cccc(c2F)C[C@H]2[C@@H](NS(=O)(=O)C3(F)CC3)CCCN12` [Example 47, 1-fluoro-N-((4^2S,4^3S)-1^3,1^5,2^2-trifluoro-5-oxo-8-oxa-4 (2,1)-piperidina-1 (1,2),2 (1,3)-dibenzenacyclooctaphane-4^3-yl)cyclopropane-1-sulfonamide] showed a ring closure, isolated yield of 44%. Further, in data set [2], the EC50 is 0.0398 to 1 nM. Moreover, the “Wake % time 1 h post dose (increase from vehicle)” value was found to be 41.3% in data set [3] (oral dose 0.3 mg/kg); 41.8% in data set [3] (oral dose 1 mg/kg); 40.4% in data set [3] (oral dose 3 mg/kg); 20.7% in data set [4] (oral dose 1 mg/kg); 37.6% in data set [4] (oral dose 3 mg/kg); 39.0% in data set [4] (oral dose 10 mg/kg).

On to `O=C1CCOc2c(F)cccc2-c2cccc(c2F)C[C@H]2[C@@H](NS(=O)(=O)CF)[C@@H](F)CCN12` [Example 42, 1-fluoro-N-((4^2S,4^3R,4^4S)-1^3,2^2,4^4-trifluoro-5-oxo-8-oxa-4 (2,1)-piperidina-1 (1,2),2 (1,3)-dibenzenacyclooctaphane-4^3-yl)methanesulfonamide], for which the EC50 in data set [2] was 0.0398 to 1 nM. The “Wake % time 1 h post dose (increase from vehicle)” value is 33.7% in data set [3] (oral dose 1 mg/kg); 34.2% in data set [3] (oral dose 3 mg/kg); 17.1% in data set [4] (oral dose 3 mg/kg); 22.8% in data set [4] (oral dose 10 mg/kg); 37.7% in data set [4] (oral dose 30 mg/kg).

Take `O=C1CCCN2C(=O)CCOc3ccccc3-c3cccc(c3F)CC12` (centres unmarked): the ring closure, isolated yield in data set [5] (from O=C(O)CCOc1ccccc1-c1cccc(CC2NCCCC2=O)c1F, amide bond, 12-membered ring, DMC (2-chloro-1,3-dimethylimidazolinium chloride)/DIEA, 2.7 mM, 25.0 °C, 12.0 h) worked out at 53%.

In data set [1] (from O=C(O)CCOc1c(F)cccc1-c1cccc(C[C@@H]2NCC[C@H](F)[C@@H]2NS(=O)(=O)C2(F)CC2)c1F, amide bond, 12-membered ring, DMC (2-chloro-1,3-dimethylimidazolinium chloride)/DIEA, 0.165 mM, 25.0 °C, 4.0 h), `O=C1CCOc2c(F)cccc2-c2cccc(c2F)C[C@H]2[C@@H](NS(=O)(=O)C3(F)CC3)[C@@H](F)CCN12` [Example 44, 1-fluoro-N-((4^2S,4^3R,4^4S)-1^3,2^2,4^4-trifluoro-5-oxo-8-oxa-4 (2,1)-piperidina-1 (1,2),2 (1,3)-dibenzenacyclooctaphane-4^3-yl)cyclopropane-1-sulfonamide] registered a ring closure, yield after HPLC of 42%. Also, the EC50 in data set [2] is 0.0398 to 1 nM.

In data set [5] (from O=C(O)CCOc1ccccc1-c1cccc(CC2NCCCC2=O)c1, amide bond, 12-membered ring, DMC (2-chloro-1,3-dimethylimidazolinium chloride)/DIEA, 2.56 mM, 25.0 °C, 12.0 h), `O=C1CCCN2C(=O)CCOc3ccccc3-c3cccc(c3)CC12` (centres unmarked) displayed a ring closure, isolated yield of 52%.

Regarding `CNCCOc1ccccc1-c1cccc(C[C@@H]2NCC3(CC3)[C@@H]2NS(=O)(=O)C(F)F)c1F`, in data set [1] (the molecule shown is the open-chain precursor, other bond, 13-membered ring, triphosgene/TEA, then K2CO3, then MeCN, 0.2 mM, 60.0 °C), the ring closure, yield after HPLC amounted to 16%.

In turn, `O=C1CCOc2c(F)cccc2-c2cccc(c2)C[C@H]2[C@@H](NS(=O)(=O)C3(F)CC3)CCCN12` [Example 49, 1-fluoro-N-((4^2S,4^3S)-1^3-fluoro-5-oxo-8-oxa-4 (2,1)-piperidina-1 (1,2),2 (1,3)-dibenzenacyclooctaphane-4^3-yl)cyclopropane-1-sulfonamide] came in with a ring closure, yield after HPLC in data set [1] (from O=C(O)CCOc1c(F)cccc1-c1cccc(C[C@@H]2NCCC[C@@H]2NS(=O)(=O)C2(F)CC2)c1, amide bond, 12-membered ring, DMC (2-chloro-1,3-dimethylimidazolinium chloride)/DIEA, 1.84 mM, 20.0 °C, 4.0 h) of 71%. Also, the EC50 in data set [2] is 0.0398 to 1 nM.

With “1,1-difluoro-N-((4^2S,4^3R)-1^3,4^4,4^4-trifluoro-6-methyl-5-oxo-9-oxa-6-aza-4 (2,1)-pyrrolidina-1 (1,2),2 (1,3)-dibenzenacyclononaphane-4^3-yl) methanesulfonamide_cis racemic”, in data set [5] (other bond, 13-membered ring, triphosgene/TEA, then K2CO3, then MeCN, 0.4 mM, 20.0 °C), the ring closure, isolated yield worked out at 28.5%.

For `O=C1N(CC(F)F)CCOc2c(F)cccc2-c2cccc(c2)C[C@H]2[C@@H](NS(=O)(=O)CF)C3(CC3)CN12` [Example 22, N-((2′S,3′S)-6′-(2,2-difluoro-ethyl)-3′-fluoro-5′-oxospiro[cyclopropane-1,4′-9-oxa-6-aza-4(2,1)-pyrrolidina-1(1,2),2(1,3)-dibenzenacyclononaphan]-3′-yl)-1-fluoromethanesulfonamide], in data set [2], the EC50 was 1 to 10 nM.

On to `CN1CCOc2c(F)cccc2-c2cccc(c2)C[C@H]2[C@@H](NS(=O)(=O)C(F)F)C3(CC3)CN2C1=O` [Example 34], for which the EC50 in data set [2] is 1 to 10 nM.

As for `CN1CCOc2c(F)cccc2-c2cccc(c2)C[C@H]2[C@@H](NS(=O)(=O)CF)C(F)(F)CN2C1=O` [Example 7, 1-fluoro-N-((4^2S,4^3R)-1^3,4^4,4^4-trifluoro-6-methyl-5-oxo-9-oxa-6-aza-4(2,1)-pyrrolidina-1(1,2),2(1,3)-dibenzenacyclononaphane-4^3-yl)methanesulfonamide], in data set [2], the EC50 is 1 to 10 nM.
